According to patent US20220064604A1, “SYSTEMIC SCLEROSIS DISEASE MODEL AND USE THEREOF” (YiPSCELL Inc., priority 2018, published 2022):
Starred links: 1 amine or outer side, 2 acyl side, 3 side chain; linkers in the order of their positions; H or OH if unused. Positions of bridges follow the written chain, without caps; N, C: chain ends. Non-standard residues stand in square brackets, D forms with d. Residues, ends and D or L forms follow the SMILES beside them. Chains are numbered I, II in the order given. Actinocin(9to1) = Cc1c2oc3c(C)ccc(C(=O)[*:1])c3nc-2c(C(=O)[*:2])c(N)c1=O; NMeV = CN[C@H](C(=O)O)C(C)C; Sar = CNCC(=O)O

Key:
[1] = system: fibroblasts derived from the induced pluripotent stem cells; experiment: Cell proliferation of iPSC-derived fibroblasts, Cell Counting Kit-8 (FDA-approved drug screening); assay type: cell-based, human; conditions: absorbance at 450 nm
Procedure: For cell proliferation, absorbance was measured at 450 nm by using the Cell Counting Kit-8 (Dojindo).
The plated cells were treated with about 800 FDA-approved drugs to screen for drugs that reduce the proliferation (FIG. 6A). For cell proliferation, absorbance was measured at 450 nm by using the Cell Counting Kit-8 (Dojindo) (FIG. 6B).

ACTA2 and COL1A1 = experiment: Fibrosis marker gene expression (qRT-PCR) in SSc iPSC-derived fibroblasts; assay type: cell-based, human; conditions: 5 μM; SSc patient iPSC-derived fibroblasts; vs untreated
Procedure: In order to verify the fibrosis model of the fibroblasts derived from the induced pluripotent stem cells of patients with systemic sclerosis formed in Example 3 above, 2.5×10^5 fibroblasts were plated on a 6-well plate, and maintained and expanded for 1 day. One day later, pirfenidone and nintedanib were treated at a concentration of 5 μM. The total RNA was extracted using Trizol, and cDNA was synthesized using the Revert Aid™ First Strand cDNA Synthesis kit. The qRT-PCR was performed on the synthesized cDNA using LightCycle 480 SYBR Green. The primers used are presented in [Table 3]. All of the experiments were repeated 3 times, and the threshold of the average cycle was used to calculate gene expression for averaging GAPDH as an internal control.

total collagen in iPSC-F = experiment: Total collagen expression, hydroxyproline assay, in iPSC-derived fibroblasts; assay type: cell-based, human; conditions: for expression of the total collagen: 5 μM, SSc patient iPSC-derived fibroblasts, vs untreated
Procedure: (§1) The cells or cell culture media were harvested, mixed with hydrochloric acid at a ratio of 1:1, and cultured at 120° C. for 3 hours. After culture, 5 mg of activated charcoal was added, followed by centrifugation at 13,000×g for 5 minutes to separate only the supernatant. The harvested supernatant was transferred to a 96-well plate and dried completely at 60° C. The Chloramine T/Oxidation Buffer mixture was added to the well, and it was cultured for 5 minutes at room temperature. After adding the diluted DMAB Reagent and incubating at 60° C. for 90 minutes, absorbance at 560 nm was measured.
as §1, with “For collagen expression, the hydroxyproline assay kit (Sigma) was used. The cells” for “The cells”, “1:1, and incubated at 120°” for “1:1, and cultured at 120°”, “hours. After incubation, 5 mg” for “hours. After culture, 5 mg”, “it was incubated for 5” for “it was cultured for 5”
For collagen expression, the hydroxyproline assay kit (Sigma) was used. The cells or cell culture media were harvested, mixed with hydrochloric acid at a ratio of 1:1, and incubated at 120° C. for 3 hours. After incubation, 5 mg of activated charcoal was added, followed by centrifugation at 13,000×g for 5 minutes to separate only the supernatant. […] After adding the diluted DMAB Reagent and incubating at 60° C. for 90 minutes, absorbance at 560 nm was measured.
After 1 day, pirfenidone and nintedanib, which are drugs approved as anti-fibrotic drugs, were treated at a concentration of 5 μM. Collagen expression was measured using the hydroxyproline assay kit (Sigma). […] After adding the diluted DMAB Reagent and incubating at 60° C. for 90 minutes, absorbance was measured at 560 nm to measure the total amount of collagen.

iPSC-F = experiment: Wound healing assay in iPSC-F with TGF-b induced fibrosis; assay type: cell-based, human
Procedure: The fibroblasts were plated on a 6-well plate and maintained and expanded. When the cells filled the plate, the plate was scratched, and fibrosis was induced by TGF-b and it was treated with the drug raloxifene.

[2] = system: COL1A1, COL3A1, and ACTA2; experiment: Fibrosis factor gene expression (qRT-PCR) in skin tissue of bleomycin model; assay type: in vivo, mouse; conditions: subcutaneous for 21 days
Procedure: (§2) A systemic sclerosis model was established by dissolving Bleocin (Dong-A ST, 15 mg) in PBS and injecting it daily into the nape of mice. Raloxifene and bazedoxifene were injected subcutaneously for 21 days from 3 days after the injection of Bleocin (FIG. 8A).
ECM gene expression was confirmed to verify the antifibrotic efficacy of raloxifene in the bleomycin model established in Example 8-1 above. After harvesting the skin tissue, the total RNA was extracted using Trizol, and cDNA was synthesized using the Revert Aid™ First Strand cDNA Synthesis kit. The qRT-PCR was performed on the synthesized cDNA using LightCycle 480 SYBR Green. The primers used are presented in [Table 4]. All of the experiments were repeated three times, and the threshold of the average cycle was used to calculate gene expression for averaging GAPDH as an internal control.

3D fibroblast layer = experiment: Thickness of 3D fibroblast layer with TGF-b induced fibrosis; assay type: cell-based, human
Excerpt: A 3D fibroblast layer was produced using the fibroblasts formed in Example 3 above. 2×10^5 fibroblasts after 28 days of differentiation were harvested and mixed with collagen 1 and plated on a 6-well-sized Transwell plate. It was replaced once every 2 days with Fibroblast Differentiation Culture Medium 1 for 5 days (FIG. 5F).
In order to confirm the effect of reducing the skin thickness by raloxifene, which is the drug selected in Example 6 above, fibrosis was induced in the 3D fibroblast layer with TGF-b, and it was treated with the drug raloxifene.

bleomycin mouse model [3] = experiment: Pulmonary fibrosis in bleomycin model (Masson Trichrome staining); assay type: in vivo
Procedure: A systemic sclerosis model was established by dissolving Bleocin (Dong-A ST, 15 mg) in PBS and injecting it daily into the nape of mice. Raloxifene and bazedoxifene were injected subcutaneously for 21 days from 3 days after the injection of Bleocin (FIG. 8A). […] For Masson Trichrome staining, the slide was mordated overnight in the Bouin solution. After washing the slide, nuclei were stained for 10 minutes with Weigert Iron Hematoxylin. The cytoplasm was stained for 5 minutes with Biebrich scarlet-acid fuchsin. It was decolorized for 10 minutes with a solution in which phosphotungstic acid, phosphomolybdic acid, and DW were mixed at a ratio of 1:1:2. The collagenic fiber was stained by maintaining in a 2% aniline blue solution for 5 minutes. The slide was washed and subjected to a dehydration process while increasing the concentration of ethanol. The remaining ethanol was removed with xylene, and it was sealed using the VectaMount Permanent Mounting Medium.

α-SMA = α-SMA expression by western blot in iPSC-derived fibroblasts; assay type: cell-based, human
Procedure: In order to verify the antifibrotic effect of dactinomycin and raloxifene, which are the drugs selected through the above experiment, 1×10^6 fibroblasts were plated on a 100 mm culture dish, treated with the target drugs, and maintained and expanded. The protein was extracted using the RIPA buffer (Sigma) to analyze the expression of fibrosis factors, and the protein concentration was quantified by the Bradford assay. The same concentration of the protein was loaded on 10% SDS-PAGE, and the protein was transferred to polyvinylidene difluoride membranes. […] After washing with PBS containing 0.1% Tween-20, the peroxidase-linked IgG secondary antibody was incubated, and protein expression was measured using the ECL kit.
In order to confirm the reduction effect of the expression of the fibrosis factors of raloxifene, which is the drug selected in Example 6, raloxifene was treated by concentration, and the expression of α-SMA was confirmed. […] The protein was extracted using the RIPA buffer (Sigma) to analyze the expression of fibrosis factors, and the protein concentration was quantified by the Bradford assay. […] After washing with PBS containing 0.1% Tween-20, the peroxidase-linked IgG secondary antibody was incubated, and protein expression was measured using the ECL kit.

bleomycin mouse model [4] = experiment: Thickness of skin tissue in bleomycin model (histology); assay type: in vivo
Procedure: as §2
In order to verify the antifibrotic efficacy of raloxifene in the bleomycin model established in Example 8-1 above, the skin tissue was harvested and paraffin blocks were prepared. The harvested skin tissue was fixed in 4% formaldehyde. The tissue was maintained in the running water for a day to remove the remaining fixative. Dehydration was carried out sequentially while increasing the concentration of an ethanol solution. After dehydration, a transparent process was performed with xylene, followed by paraffin penetration. The next day, the tissue was fixed to a paraffin block, and a tissue section was obtained using a microtome. The slide was dried at 60° C. for 1 hour. After the slide was deparaffinized with xylene, it was rehydrated while decreasing the concentration of the ethanol solution and washed with tap water, and staining was performed.
For hematoxylin and eosin (H&E) staining, sections were incubated in the Harris hematoxylin solution for 10 minutes. The slide was washed, decolorized in an ethanol solution containing 1% HCl, and then neutralized in 0.2% ammonia water. […]

[5] = raloxifene treated by concentration

SMILES: Cc1c2oc3c(C)ccc(C(=O)N[C@@H]4C(=O)N[C@H](C(C)C)C(=O)N5CCC[C@H]5C(=O)N(C)CC(=O)N(C)[C@@H](C(C)C)C(=O)O[C@@H]4C)c3nc-2c(C(=O)N[C@@H]2C(=O)N[C@H](C(C)C)C(=O)N3CCC[C@H]3C(=O)N(C)CC(=O)N(C)[C@@H](C(C)C)C(=O)O[C@@H]2C)c(N)c1=O [dactinomycin] (I: T[dV]P[Sar][NMeV] / II: T[dV]P[Sar][NMeV]; ester I:1-I:C, II:1-II:C; linker I:N-II:N via Actinocin(9to1))
- cell proliferation [1]: decreased

SMILES: COC(=O)c1ccc2c(c1)NC(=O)/C2=C(\Nc1ccc(N(C)C(=O)CN2CCN(C)CC2)cc1)c1ccccc1 [nintedanib]
- gene expression of ACTA2 (ACTA2 and COL1A1): significantly reduced
- gene expression of COL1A1 (ACTA2 and COL1A1): significantly reduced
- expression of the total collagen (total collagen in iPSC-F): significantly reduced

SMILES: Cc1ccc(=O)n(-c2ccccc2)c1 [pirfenidone]
- gene expression of ACTA2 (ACTA2 and COL1A1): significantly reduced
- gene expression of COL1A1 (ACTA2 and COL1A1): significantly reduced
- expression of the total collagen (total collagen in iPSC-F): significantly reduced

SMILES: O=C(c1ccc(OCCN2CCCCC2)cc1)c1c(-c2ccc(O)cc2)sc2cc(O)ccc12 [raloxifene]
- wound healing, which was increased by TGF-b (iPSC-F; wound healing assay in iPSC-F): reduced
- proliferation of the cells, which was increased by TGF-b (iPSC-F; wound healing experiment, TGF-b induced): reduced
- cell proliferation [1]: decreased
- expression of ACTA2 [2]: reduced
- expression of COL1A1 [2]: reduced
- expression of COL3A1 [2]: reduced
- thickness of the 3D fibroblast layer, which was increased by TGF-b (3D fibroblast layer): reduced
- expression of the total collagen, treated by concentration (total collagen in iPSC-F; [5]): reduced as the treatment concentration of raloxifene was increased
- lung fibrosis (bleomycin mouse model [3]): reduced
- expression of α-SMA (α-SMA; iPSC-F of patients with systemic sclerosis): effectively decreased the expression of α-SMA compared to dactinomycin
- expression of α-SMA, treated by concentration (α-SMA; [5]): reduced as the treatment concentration of raloxifene was increased
- thickness of the skin tissue (bleomycin mouse model [4]): reduced
